The text below walks through data of article PMC6150173, “Tryptophan-Containing Cyclic Decapeptides with Activity against Plant Pathogenic Bacteria” (Molecules : A Journal of Synthetic Chemistry and Natural …, 2017).

Where “and” joins values, the source holds several entries; their conditions need not be identical. Equal values may be shown once. Peptide text beside a SMILES is read from it.

What all share (type): cell-based
Series [1] has as its system erythrocyte suspensions of human blood. As to the kind of experiment: Hemolytic activity, hemoglobin release. The following applies: human blood erythrocytes 5% v/v, absorbance 540 nm, percentage compared to melittin, three replicates; for Hemolysis (%) at 50 µM: peptide 50 μM (table prints 50 µM); for Hemolysis (%) at 125 µM: peptide 125 μM (table prints 125 µM). The protocol:
The hemolytic activity of the compounds was evaluated at 50 and 125 μM by determining hemoglobin release from erythrocyte suspensions of human blood (5% v/v) (Oxoid) using absorbance at 540 nm, as previously described. Three replicates for each peptide concentration were used.

The subject of series [2] is Pseudomonas syringae pv. syringae EPS94. As to the kind of experiment: Antibacterial activity (MIC), in vitro growth inhibition. The conditions noted are these: Table S1, MIC range. The protocol: (§1) Erwinia amylovora PMV6076 (Institut National de la Recherche Agronomique, Angers, France), Pseudomonas syringae pv. syringae EPS94 (Institut de Tecnologia Agroalimentària, Universitat de Girona, Spain), and Xanthomonas axonopodis pv. vesicatoria 2133-2 (Instituto Valenciano de Investigaciones Agrarias, Valencia, Spain) were used as bacterial strains. They were stored and cultivated as previously described.
(§2) The minimum inhibitory concentration (MIC) was analyzed as previously described at 0.8, 1.6, 3.1, 6.2, 12.5, 25 and 50 μM [20].

Series [3] concerns Erwinia amylovora PMV6076. The description is as above. The following applies: Table S1, MIC range. The protocol: as §1, §2
Series [4] deals with Xanthomonas axonopodis pv. vesicatoria 2133-2. The following applies: Table S1, MIC range. The method, then: as §1, §2

On to `CC(C)C[C@@H]1NC(=O)[C@H](CCCCN)NC(=O)[C@H](CCCCN)NC(=O)[C@H](Cc2c[nH]c3ccccc23)NC(=O)[C@H](CC(C)C)NC(=O)[C@H](CCCCN)NC(=O)[C@H](CCCCN)NC(=O)[C@H](CC(C)C)NC(=O)[C@H](CCCCN)NC(=O)[C@H](CCC(N)=O)NC1=O` [BPC084W, c(KLKKLWKKLQ)] (cyclo(KKLQKLKKLW)), for which, in series [1], the “Hemolysis (%) at 50 µM” value is listed as 54% and the “Hemolysis (%) at 125 µM” value turned out to be 60%. In addition, the “MIC Pss” value in series [2] fell in the range of 12.5 to 25 µM. For the same compound, the “MIC Ea” value in series [3] lay within 12.5 to 25 µM. For the same compound, the “MIC Xav” value in series [4] was in the range of 1.6 to 3.1 µM.
As to `CC(C)C[C@@H]1NC(=O)[C@H](CCC(N)=O)NC(=O)[C@H](CC(C)C)NC(=O)[C@H](CCCCN)NC(=O)[C@H](CCCCN)NC(=O)[C@H](Cc2c[nH]c3ccccc23)NC(=O)[C@H](CC(C)C)NC(=O)[C@H](CCCCN)NC(=O)[C@H](CCCCN)NC(=O)[C@H](CCCCN)NC1=O` [BPC086W, c(LKKKLWKKLQ)] (cyclo(KKKLWKKLQL)), in series [1], the “Hemolysis (%) at 50 µM” value was 4%; the “Hemolysis (%) at 125 µM” value was 8% and ≤ 8%. The “MIC Pss” value in series [2] was 3.1 to 6.2 µM. In addition, in series [3], the “MIC Ea” value is 6.2 to 12.5 µM. Besides, the “MIC Xav” value in series [4] is 0.8 to 1.6 µM.
Take `CC(C)C[C@@H]1NC(=O)[C@H](CCCCN)NC(=O)[C@H](CCCCN)NC(=O)[C@H](Cc2c[nH]c3ccccc23)NC(=O)[C@H](CCCCN)NC(=O)[C@H](CC(C)C)NC(=O)[C@H](CC(C)C)NC(=O)[C@H](CCCCN)NC(=O)[C@H](CCCCN)NC(=O)[C@H](CCC(N)=O)NC1=O` [BPC088W, c(KKLLKWKKLQ)] (cyclo(KKLLKWKKLQ)): in series [1], the “Hemolysis (%) at 50 µM” value came out at 14% and the “Hemolysis (%) at 125 µM” value is recorded as 19%. Moreover, in series [2], the “MIC Pss” value is 6.2 to 12.5 µM. Further, in series [3], the “MIC Ea” value is 12.5 to 25 µM. Besides, the “MIC Xav” value in series [4] lay within 1.6 to 3.1 µM.
In the same order, the values of `CC(C)C[C@@H]1NC(=O)[C@H](CCCCN)NC(=O)[C@H](CCCCN)NC(=O)[C@H](Cc2c[nH]c3ccccc23)NC(=O)[C@H](CCCCN)NC(=O)[C@H](CC(C)C)NC(=O)[C@H](CCCCN)NC(=O)[C@H](CC(C)C)NC(=O)[C@H](CCCCN)NC(=O)[C@H](CCC(N)=O)NC1=O` [BPC090W, c(KLKLKWKKLQ)] (cyclo(KKLQKLKLKW)) are 9%, 15%, 6.2 to 12.5 µM, 12.5 to 25 µM and 1.6 to 3.1 µM.
On the same counts, the results for `CC(C)C[C@@H]1NC(=O)[C@H](CCCCN)NC(=O)[C@H](CCCCN)NC(=O)[C@H](Cc2c[nH]c3ccccc23)NC(=O)[C@H](CCCCN)NC(=O)[C@H](CCCCN)NC(=O)[C@H](CC(C)C)NC(=O)[C@H](CC(C)C)NC(=O)[C@H](CCCCN)NC(=O)[C@H](CCC(N)=O)NC1=O` [BPC094W, c(KLLKKWKKLQ)] (cyclo(KKLQKLLKKW)) are 35%, 42%, 6.2 to 12.5 µM, 25 to 50 µM and 3.1 to 6.2 µM.
On the same counts, the results for `CC(C)C[C@@H]1NC(=O)[C@H](CCCCN)NC(=O)[C@H](CC(C)C)NC(=O)[C@H](CCC(N)=O)NC(=O)[C@H](CC(C)C)NC(=O)[C@H](CCCCN)NC(=O)[C@H](CCCCN)NC(=O)[C@H](Cc2c[nH]c3ccccc23)NC(=O)[C@H](CCCCN)NC(=O)[C@H](CCCCN)NC1=O` [BPC096W, c(LKLKKWKKLQ)] (cyclo(KKLQLKLKKW)) are 10%, 15%, 6.2 to 12.5 µM, 12.5 to 25 µM and 1.6 to 3.1 µM.
Take `CC(C)C[C@@H]1NC(=O)[C@H](CCCCN)NC(=O)[C@H](CCCCN)NC(=O)[C@H](Cc2c[nH]c3ccccc23)NC(=O)[C@H](CCCCN)NC(=O)[C@H](CCCCN)NC(=O)[C@H](CCCCN)NC(=O)[C@H](CC(C)C)NC(=O)[C@H](CC(C)C)NC(=O)[C@H](CCC(N)=O)NC1=O` [BPC098W, c(LLKKKWKKLQ)] (cyclo(KKKWKKLQLL)): in series [1], the “Hemolysis (%) at 50 µM” value amounted to 12%; the “Hemolysis (%) at 125 µM” value is 18% and below 20%. Moreover, the “MIC Pss” value in series [2] lay within 3.1 to 6.2 µM. Moreover, in series [3], the “MIC Ea” value fell in the range of 12.5 to 25 µM. For the same compound, the “MIC Xav” value in series [4] lay in the range of 1.6 to 3.1 µM.
In the case of `CC(C)C[C@@H]1NC(=O)[C@H](CCCCN)NC(=O)[C@H](CCCCN)NC(=O)[C@H](CCCCN)NC(=O)[C@H](CCC(N)=O)NC(=O)[C@H](CCCCN)NC(=O)[C@H](CC(C)C)NC(=O)[C@H](CC(C)C)NC(=O)[C@H](Cc2c[nH]c3ccccc23)NC(=O)[C@H](CCCCN)NC1=O` [BPC102W, c(KKKLKWLLKQ)] (cyclo(KKKLKWLLKQ)), in series [1], the “Hemolysis (%) at 50 µM” value is reported as 12% and the “Hemolysis (%) at 125 µM” value is 17%. Besides, the “MIC Pss” value in series [2] is 3.1 to 6.2 µM. The “MIC Ea” value in series [3] was 12.5 to 25 µM. For the same compound, the “MIC Xav” value in series [4] lay in the range of 6.2 to 12.5 µM.
On the same counts, the results for `CC(C)C[C@@H]1NC(=O)[C@H](CCCCN)NC(=O)[C@H](CCCCN)NC(=O)[C@H](CCC(N)=O)NC(=O)[C@H](CCCCN)NC(=O)[C@H](CC(C)C)NC(=O)[C@H](CC(C)C)NC(=O)[C@H](Cc2c[nH]c3ccccc23)NC(=O)[C@H](CCCCN)NC(=O)[C@H](CCCCN)NC1=O` [BPC104W, c(KKLKKWLLKQ)] (cyclo(KKLKKWLLKQ)) are 2%, 3%, 6.2 to 12.5 µM, 12.5 to 25 µM and 6.2 to 12.5 µM.
On the same counts, the results for `CC(C)C[C@@H]1NC(=O)[C@H](CCCCN)NC(=O)[C@H](CCC(N)=O)NC(=O)[C@H](CCCCN)NC(=O)[C@H](CC(C)C)NC(=O)[C@H](CC(C)C)NC(=O)[C@H](Cc2c[nH]c3ccccc23)NC(=O)[C@H](CCCCN)NC(=O)[C@H](CCCCN)NC(=O)[C@H](CCCCN)NC1=O` [BPC106W, c(KLKKKWLLKQ)] (cyclo(KKKWLLKQKL)) are 2%, 2%, 3.1 to 6.2 µM, 25 to 50 µM and 3.1 to 6.2 µM.
Consider `CC(C)C[C@@H]1NC(=O)[C@H](CCC(N)=O)NC(=O)[C@H](CCCCN)NC(=O)[C@H](CC(C)C)NC(=O)[C@H](CC(C)C)NC(=O)[C@H](Cc2c[nH]c3ccccc23)NC(=O)[C@H](CCCCN)NC(=O)[C@H](CCCCN)NC(=O)[C@H](CCCCN)NC(=O)[C@H](CCCCN)NC1=O` [BPC108W, c(LKKKKWLLKQ)] (cyclo(KKKKWLLKQL)), for which, in series [1], the “Hemolysis (%) at 50 µM” value is 4%; the “Hemolysis (%) at 125 µM” value is 5% and ≤ 8%. In addition, the “MIC Pss” value in series [2] lay within 1.6 to 3.1 µM. Moreover, the “MIC Ea” value in series [3] lay in the range of 6.2 to 12.5 µM. For the same compound, in series [4], the “MIC Xav” value lay within 1.6 to 3.1 µM.
Turning to `CC(C)C[C@@H]1NC(=O)[C@H](CCCCN)NC(=O)[C@H](Cc2c[nH]c3ccccc23)NC(=O)[C@H](CC(C)C)NC(=O)[C@H](CC(C)C)NC(=O)[C@H](CCCCN)NC(=O)[C@H](CCCCN)NC(=O)[C@H](CCCCN)NC(=O)[C@H](CCC(N)=O)NC(=O)[C@H](CCCCN)NC1=O` [BPC110W, c(KKKLLWKLKQ)] (cyclo(KKKLLWKLKQ)), in series [1], the “Hemolysis (%) at 50 µM” value worked out at 3% and the “Hemolysis (%) at 125 µM” value came out at 4%. Further, the “MIC Pss” value in series [2] was in the range of 3.1 to 6.2 µM. For the same compound, the “MIC Ea” value in series [3] lay within 12.5 to 25 µM. In series [4], the “MIC Xav” value fell in the range of 6.2 to 12.5 µM.
`CC(C)C[C@@H]1NC(=O)[C@H](CCCCN)NC(=O)[C@H](CCC(N)=O)NC(=O)[C@H](CCCCN)NC(=O)[C@H](CC(C)C)NC(=O)[C@H](CCCCN)NC(=O)[C@H](Cc2c[nH]c3ccccc23)NC(=O)[C@H](CC(C)C)NC(=O)[C@H](CCCCN)NC(=O)[C@H](CCCCN)NC1=O` [BPC114W, c(KLKKLWKLKQ)] (cyclo(KKLWKLKQKL)): in series [1], the “Hemolysis (%) at 50 µM” value was determined as 29% and the “Hemolysis (%) at 125 µM” value was found to be 38%. The “MIC Pss” value in series [2] fell in the range of 3.1 to 6.2 µM. In series [3], the “MIC Ea” value is 12.5 to 25 µM. Besides, in series [4], the “MIC Xav” value was 1.6 to 3.1 µM.
In the same order, the values of `CC(C)C[C@@H]1NC(=O)[C@H](CCC(N)=O)NC(=O)[C@H](CCCCN)NC(=O)[C@H](CC(C)C)NC(=O)[C@H](CCCCN)NC(=O)[C@H](Cc2c[nH]c3ccccc23)NC(=O)[C@H](CC(C)C)NC(=O)[C@H](CCCCN)NC(=O)[C@H](CCCCN)NC(=O)[C@H](CCCCN)NC1=O` [BPC116W, c(LKKKLWKLKQ)] (cyclo(KKKLWKLKQL)) are 9%, 14%, 3.1 to 6.2 µM, 12.5 to 25 µM and 3.1 to 6.2 µM.
On the same counts, the results for `CC(C)C[C@@H]1NC(=O)[C@H](CCCCN)NC(=O)[C@H](Cc2c[nH]c3ccccc23)NC(=O)[C@H](CCCCN)NC(=O)[C@H](CC(C)C)NC(=O)[C@H](CC(C)C)NC(=O)[C@H](CCCCN)NC(=O)[C@H](CCCCN)NC(=O)[C@H](CCC(N)=O)NC(=O)[C@H](CCCCN)NC1=O` [BPC118W, c(KKLLKWKLKQ)] (cyclo(KKLLKWKLKQ)) are 4%, 4%, 6.2 to 12.5 µM, 12.5 to 25 µM and 12.5 to 25 µM.
